Assay results taken from US11529356B2, “2-(morpholin-4-yl)-1,7-naphthyridines” (Bayer Pharma Aktiengesellschaft, priority 2014, dated 2022).

Columns and labels:
Caco-2 cells = assay: Proliferation Assay Caco-2 (crystal violet); assay type: cell-based; conditions: Homo sapiens, Caco-2, Caco-2 cells; read-out: Inhibition of Caco-2 cell proliferation IC50
Procedure: After 24 hours, the cells of one plate (zero plate) were dyed with crystal violet (see below), whereas the medium of the other plates was replaced with fresh culture medium (200 μl) to which the test substances were added in various concentrations (0 μM, and also in the range of 0.001-10 μM; the final concentration of the solvent dimethyl sulphoxide was 0.1 or 0.5%). The cells were incubated for 4 days in the presence of the test substances. […] After washing the fixed cells three times with water, the plates were dried at room temperature. The cells were stained by adding 100 μl/measurement point of a 0.1% strength crystal violet solution (pH adjusted to pH 3 by adding acetic acid). After washing the cells three times with water, the plates were dried at room temperature. The dye was dissolved by adding 100 μl/measurement point of a 10% strength acetic acid solution. […] The percentage change in cell growth was calculated by normalizing the measured values to the absorbance values of the zero plate (=0%) and the absorbance of the untreated (0 μM) cells (=100%). The IC50 values were determined by means of a four parameter fit.

[1] = target: full-length human ATR protein (Homo sapiens (Human), UniProt Q13535); assay: Binding Assay ATR (TR-FRET tracer displacement); conditions: tracer A
Chain of full-length human ATR protein (Q13535 other isoform, or with tags, fused parts or gaps): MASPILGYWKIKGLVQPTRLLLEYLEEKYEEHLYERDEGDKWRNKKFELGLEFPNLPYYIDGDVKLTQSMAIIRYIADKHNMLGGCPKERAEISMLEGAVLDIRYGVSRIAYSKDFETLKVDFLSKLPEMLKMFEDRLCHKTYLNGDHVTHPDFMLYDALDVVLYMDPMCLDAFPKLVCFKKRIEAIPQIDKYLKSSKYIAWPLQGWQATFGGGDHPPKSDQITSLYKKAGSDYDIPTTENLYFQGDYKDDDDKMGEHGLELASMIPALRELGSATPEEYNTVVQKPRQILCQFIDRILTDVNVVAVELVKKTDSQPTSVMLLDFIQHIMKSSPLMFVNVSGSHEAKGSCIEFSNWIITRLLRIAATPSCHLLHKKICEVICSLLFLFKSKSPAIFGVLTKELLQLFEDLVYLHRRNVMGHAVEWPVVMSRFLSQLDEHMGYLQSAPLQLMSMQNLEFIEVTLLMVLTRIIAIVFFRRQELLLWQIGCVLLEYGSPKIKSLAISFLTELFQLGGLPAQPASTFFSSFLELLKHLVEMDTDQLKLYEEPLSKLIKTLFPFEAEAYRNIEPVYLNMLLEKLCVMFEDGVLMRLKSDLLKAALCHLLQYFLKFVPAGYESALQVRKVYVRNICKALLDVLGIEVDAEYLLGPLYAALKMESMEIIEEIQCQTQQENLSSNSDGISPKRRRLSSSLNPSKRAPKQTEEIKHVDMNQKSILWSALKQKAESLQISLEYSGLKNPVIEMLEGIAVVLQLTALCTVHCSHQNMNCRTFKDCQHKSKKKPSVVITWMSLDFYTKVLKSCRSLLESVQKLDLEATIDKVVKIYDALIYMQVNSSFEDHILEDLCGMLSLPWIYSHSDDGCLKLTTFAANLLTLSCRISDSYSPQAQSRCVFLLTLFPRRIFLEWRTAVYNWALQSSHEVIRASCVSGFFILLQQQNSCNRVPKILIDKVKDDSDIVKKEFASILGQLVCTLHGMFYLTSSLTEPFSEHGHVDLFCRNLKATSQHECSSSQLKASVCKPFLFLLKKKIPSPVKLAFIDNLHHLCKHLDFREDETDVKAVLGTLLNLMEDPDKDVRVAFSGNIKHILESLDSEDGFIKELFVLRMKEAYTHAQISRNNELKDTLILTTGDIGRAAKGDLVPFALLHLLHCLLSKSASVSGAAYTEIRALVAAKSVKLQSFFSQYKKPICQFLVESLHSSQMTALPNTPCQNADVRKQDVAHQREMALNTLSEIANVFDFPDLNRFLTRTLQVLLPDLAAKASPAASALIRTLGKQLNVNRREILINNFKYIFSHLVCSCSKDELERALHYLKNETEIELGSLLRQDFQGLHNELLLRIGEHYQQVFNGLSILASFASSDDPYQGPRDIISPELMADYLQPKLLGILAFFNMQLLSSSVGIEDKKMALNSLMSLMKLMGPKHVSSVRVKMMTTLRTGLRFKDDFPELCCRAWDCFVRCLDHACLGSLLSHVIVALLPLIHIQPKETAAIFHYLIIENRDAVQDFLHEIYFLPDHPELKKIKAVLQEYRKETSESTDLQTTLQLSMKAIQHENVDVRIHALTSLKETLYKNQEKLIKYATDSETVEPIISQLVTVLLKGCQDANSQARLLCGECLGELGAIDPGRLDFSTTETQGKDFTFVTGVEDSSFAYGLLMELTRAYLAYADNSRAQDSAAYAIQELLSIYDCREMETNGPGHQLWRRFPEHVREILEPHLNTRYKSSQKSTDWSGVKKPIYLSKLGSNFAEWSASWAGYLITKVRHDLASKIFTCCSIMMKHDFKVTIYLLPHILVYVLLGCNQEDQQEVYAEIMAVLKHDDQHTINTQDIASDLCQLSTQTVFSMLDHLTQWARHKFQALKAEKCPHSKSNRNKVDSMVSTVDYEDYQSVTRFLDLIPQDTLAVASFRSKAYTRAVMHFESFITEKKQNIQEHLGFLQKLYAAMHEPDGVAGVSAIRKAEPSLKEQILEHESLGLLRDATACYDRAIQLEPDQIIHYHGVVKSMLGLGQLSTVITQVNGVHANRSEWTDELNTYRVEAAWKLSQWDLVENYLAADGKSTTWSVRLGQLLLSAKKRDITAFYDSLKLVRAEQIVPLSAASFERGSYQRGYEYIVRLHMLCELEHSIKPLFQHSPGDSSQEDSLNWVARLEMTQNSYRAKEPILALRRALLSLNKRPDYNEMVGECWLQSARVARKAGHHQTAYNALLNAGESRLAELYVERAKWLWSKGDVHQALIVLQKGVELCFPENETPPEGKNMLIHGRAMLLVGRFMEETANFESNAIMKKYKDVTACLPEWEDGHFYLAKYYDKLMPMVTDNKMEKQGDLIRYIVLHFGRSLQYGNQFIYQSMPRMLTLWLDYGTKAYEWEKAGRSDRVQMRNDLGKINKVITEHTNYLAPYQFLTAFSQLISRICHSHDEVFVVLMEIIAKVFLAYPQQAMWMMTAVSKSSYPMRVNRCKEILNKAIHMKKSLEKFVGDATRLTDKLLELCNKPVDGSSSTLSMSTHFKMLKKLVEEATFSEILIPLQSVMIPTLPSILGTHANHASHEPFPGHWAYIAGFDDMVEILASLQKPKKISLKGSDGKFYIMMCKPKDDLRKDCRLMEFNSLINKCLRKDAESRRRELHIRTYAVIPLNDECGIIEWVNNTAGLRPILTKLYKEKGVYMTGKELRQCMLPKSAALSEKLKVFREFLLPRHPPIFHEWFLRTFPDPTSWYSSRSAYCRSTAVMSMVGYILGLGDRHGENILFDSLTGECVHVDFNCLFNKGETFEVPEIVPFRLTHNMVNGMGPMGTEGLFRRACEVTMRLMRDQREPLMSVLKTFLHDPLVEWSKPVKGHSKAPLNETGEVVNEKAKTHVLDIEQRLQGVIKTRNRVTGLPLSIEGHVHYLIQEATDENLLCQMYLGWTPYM
Chain of full-length human ATR protein (Q8WXE1 other isoform, or with tags, fused parts or gaps partner): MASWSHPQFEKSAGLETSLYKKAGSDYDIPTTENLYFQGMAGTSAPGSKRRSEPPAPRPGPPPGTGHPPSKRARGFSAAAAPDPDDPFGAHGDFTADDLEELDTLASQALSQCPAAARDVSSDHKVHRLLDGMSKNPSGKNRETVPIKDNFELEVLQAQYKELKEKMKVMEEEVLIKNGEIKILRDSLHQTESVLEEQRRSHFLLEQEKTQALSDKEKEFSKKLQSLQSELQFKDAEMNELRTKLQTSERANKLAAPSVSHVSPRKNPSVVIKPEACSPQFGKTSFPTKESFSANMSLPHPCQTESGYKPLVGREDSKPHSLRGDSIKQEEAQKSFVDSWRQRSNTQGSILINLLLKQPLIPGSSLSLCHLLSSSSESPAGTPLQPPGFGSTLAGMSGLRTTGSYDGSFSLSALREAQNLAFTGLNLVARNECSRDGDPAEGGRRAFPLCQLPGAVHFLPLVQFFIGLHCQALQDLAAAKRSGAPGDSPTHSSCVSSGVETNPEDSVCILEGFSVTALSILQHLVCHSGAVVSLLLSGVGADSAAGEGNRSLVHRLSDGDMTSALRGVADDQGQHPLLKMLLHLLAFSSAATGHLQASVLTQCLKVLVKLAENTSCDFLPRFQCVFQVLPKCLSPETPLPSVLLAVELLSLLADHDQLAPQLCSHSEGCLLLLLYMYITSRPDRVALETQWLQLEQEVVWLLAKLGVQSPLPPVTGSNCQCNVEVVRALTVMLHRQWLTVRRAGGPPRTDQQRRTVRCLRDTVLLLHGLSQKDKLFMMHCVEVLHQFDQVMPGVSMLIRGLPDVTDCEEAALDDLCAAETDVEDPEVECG
Source text: To determine of binding activity of the test compounds, full-length human ATR protein was expressed and purified together with ATRIP as described above. Furthermore, a fluorescently labelled compound (either tracer A or B as described above) was used as a tracer molecule. Detection of the binding event of the tracer was achieved by time-resolved fluorescence energy transfer (TR-FRET). We used an anti-GST-Terbium antibody (CisBio) that binds to the GST-tag at the N-terminus of ATR-kinase. […] Displacement of the fluorescent tracer by a test compound leads to a reduction of the TR-FRET-signal.
For the assay 50 nl of a 100-fold concentrated solution of the test compound in DMSO was pipetted into a black low volume 384 well microtiter plate (MTP, Greiner Bio-One, Frickenhausen, Germany). […] The ATR-working solution was incubated for 30 min at 22° C. prior to dispensing to pre-form the complex of antiGST-Tb+GST-ATR+ATRIP. Then, 3 μl of the ATR-working solution were added to the test compound and the mixture was incubated for 10 min at 22° C. to allow pre-binding of the test compounds to ATR/ATRIP. Then, 2 μl of a 100 nM solution of either tracer A or B in assay buffer were added to the ATR-working solution. The resulting mixture was incubated for 30 min at 22° C. […] IC50 values were calculated by a 4 parameter fit using standard software (GraphPad prism or equivalent).

| SMILES | IC50 (Caco-2 cells) | IC50 [1] |
| --- | --- | --- |
| Clc1cc(N2CCOCC2)nc2c(-c3cc[nH]n3)nccc12 [Example 62, 4-chloro-2-morpholin-4-yl-8-(1H-pyrazol-3-yl)-[1,7]naphthyridine] | > 3 µM |  |
| c1cc(-c2nccc3c(N4C[C@@H]5C[C@H]4CO5)cc(N4CCOCC4)nc23)[nH]n1 [Example 185, 2-(morpholin-4-yl)-4-[(1S,4S)-2-oxa-5-azabicyclo[2.2.1]hept-5-yl]-8-(1H-pyrazol-5-yl)-1,7-naphthyridine] |  | 0.852 µM |
